Source: patent publication US6878697B2, “Phenylamino-pyrimidines and uses thereof” (Ariad Pharmaceuticals, Inc., priority 2001, dated 2005)

Assay: Hydroxyapatite assay (hydroxyapatite adsorption chromatography)
Type: physicochemical
Conditions: corrected retention K=(retention time-void time)/void on TSK-Gel HA 1000 HPLC column; linear gradient 10 mM to 500 mM sodium phosphate, 0.15 N NaCl, pH 6.8
Protocol: Hydroxyapatite is the principal mineral component of bone. Hydroxyapatite adsorption chromatography is used as an assay to evaluate the bone-targeting potential of both individual bone-targeting moieties (“monomers”) and of pharmaceuticals incorporating bone-targeting groups.
Method: The rentention time of a test compound is measured using a linear gradient from 10 mM sodium phosphate, 0.15 N NaCl, pH=6.8 to 500 mM sodium phosphate, 0.15 N NaCl, […] on a TSK-Gel HA 1000 high pressure liquid chromatography column (7.5 mm×75 mm). The rentention time of the compound is expressed in terms of K=(retention time-void time)/void. This K value is corrected using two reference compounds to correct from inter-column and inter-system variation to obtain a K′ value.
Reference Compounds: K′ values were determined for known bone targeted compounds, the bisphosphonate, alendronate and tetracycline.

Question: Which “K′ value” does the source give for `NCCCC(O)(P(=O)(O)O)P(=O)(O)O` [Alendronate, alendronate] here?
Answer: 3.7
